Reference: patent publication US20260285880A1, “SUBSTITUTED DIHYDROTHIENOPYRIMIDINE COMPOUND, PREPARATION METHOD THEREFOR, AND USE THEREOF” (SHANGHAI YIDI BIOTECHNOLOGY CO., LTD., priority 2023, published 2026)

Experiments:
[1] = target: PDE4D2 (Homo sapiens, UniProt Q08499); assay: PDE4D2 enzyme experiment (AMP-Glo); conditions: read-out: PDE4D2 IC50 Binding; enzyme assay
Protocol: All compounds were dissolved in DMSO into 10 mM or 20 mM stock solutions. The compound to be tested was diluted with DMSO in a 3-fold gradient. 20 nL/well of the compound or a DMSO control was transferred to a 384-well plate by using Echo 550 instrument. The plate was sealed with a membrane and centrifuged for 1 minute. A 2× enzyme solution was prepared with an assay buffer, and 2 uL/well of the 2× enzyme solution was added, followed by equilibration at room temperature for 10 minutes. A 2× Cyclic-3′,5′-AMP substrate solution was prepared with an assay buffer, and 2 uL/well of the 2× substrate solution was added, followed by incubation at room temperature for 60 minutes. 4 μL of AMP-glo reagent was added, followed by incubation at room temperature for 60 minutes. 8 ul of an AMP detection solution was added, followed by incubation at room temperature for 60 minutes. An RLU value was read on Envision 2105 plate reader. The RLU value represents the concentration of the product AMP. Inhibition rate %=(1−(RLUpositive control−RLUcomnpound)/(RLUpositive control−RLUnegative control))*100. The IC50 value was then calculated by Graphpad 8.0 software using Y=Bottom+(Top−Bottom)/(1+10^((LogIC50−X)*HillSlope)).

[2] = target: PDE4B2 (Homo sapiens, UniProt Q07343); conditions: for IC50: read-out: PDE4B2 IC50, enzyme assay
[3] = target: Flpin-293-PDE4B2 cells (Homo sapiens, UniProt Q07343); assay: cell-based; conditions: for inhibition at 0.001 µM: read-out: Cell Inhibition % @1 nM, 1 nM, Flpin-293-PDE4B2 cells; for inhibition at 0.01 µM: read-out: Cell Inhibition % @10 nM, 10 nM, Flpin-293-PDE4B2 cells; for inhibition at 0.1 µM: read-out: Cell Inhibition % @100 nM, 100 nM, Flpin-293-PDE4B2 cells
Sequence of Flpin-293-PDE4B2 cells (Q07343 1-564 isoform Q07343-2): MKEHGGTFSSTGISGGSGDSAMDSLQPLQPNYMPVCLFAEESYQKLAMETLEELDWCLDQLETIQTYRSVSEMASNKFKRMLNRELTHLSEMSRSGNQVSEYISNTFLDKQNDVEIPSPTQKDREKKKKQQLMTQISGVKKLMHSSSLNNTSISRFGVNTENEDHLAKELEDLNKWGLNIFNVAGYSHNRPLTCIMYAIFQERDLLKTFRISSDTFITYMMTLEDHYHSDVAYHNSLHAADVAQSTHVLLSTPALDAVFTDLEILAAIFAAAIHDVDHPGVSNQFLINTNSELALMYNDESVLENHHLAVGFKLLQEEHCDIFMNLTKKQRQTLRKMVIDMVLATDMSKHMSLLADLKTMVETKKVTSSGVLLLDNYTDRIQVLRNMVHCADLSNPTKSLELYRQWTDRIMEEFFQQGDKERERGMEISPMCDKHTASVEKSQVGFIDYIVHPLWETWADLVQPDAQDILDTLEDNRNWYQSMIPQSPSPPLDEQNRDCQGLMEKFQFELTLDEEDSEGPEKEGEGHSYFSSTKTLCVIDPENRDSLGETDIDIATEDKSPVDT
Protocol: All compounds were dissolved in DMSO into 10 mM or 20 mM stock solutions. The compound to be tested was diluted with DMSO with a 3-fold gradient. […] 40 nL/well of the compound or a DMSO control was transferred to a 384-well plate by using Echo 550 instrument. […] The plate was incubated at 37° C. for 30 minutes. Eu-cAMP tracer and Ulight-anti-cAMP were frozen and thawed and diluted in a lysis buffer. 10 of μl Eu-cAMP tracer was added to an experimental well, and 10 μl of Ulight-anti-cAMP was added to the experimental well. The reaction plate was centrifuged at 200 g at room temperature for 30 s and then left to stand at 25° C. for 1 h, and data was then collected by Envision. Inhibition %=100−(Signal compound−SignalAve positive control)/(SignalAve negative control−SignalAve positive control)×100.

Sequence of PDE4B2 (Q07343 1-564 isoform Q07343-2, species assumed): as the sequence (Q07343 1-564 isoform Q07343-2) above
Sequence of PDE4D2 (Q08499 303-809 limits assumed): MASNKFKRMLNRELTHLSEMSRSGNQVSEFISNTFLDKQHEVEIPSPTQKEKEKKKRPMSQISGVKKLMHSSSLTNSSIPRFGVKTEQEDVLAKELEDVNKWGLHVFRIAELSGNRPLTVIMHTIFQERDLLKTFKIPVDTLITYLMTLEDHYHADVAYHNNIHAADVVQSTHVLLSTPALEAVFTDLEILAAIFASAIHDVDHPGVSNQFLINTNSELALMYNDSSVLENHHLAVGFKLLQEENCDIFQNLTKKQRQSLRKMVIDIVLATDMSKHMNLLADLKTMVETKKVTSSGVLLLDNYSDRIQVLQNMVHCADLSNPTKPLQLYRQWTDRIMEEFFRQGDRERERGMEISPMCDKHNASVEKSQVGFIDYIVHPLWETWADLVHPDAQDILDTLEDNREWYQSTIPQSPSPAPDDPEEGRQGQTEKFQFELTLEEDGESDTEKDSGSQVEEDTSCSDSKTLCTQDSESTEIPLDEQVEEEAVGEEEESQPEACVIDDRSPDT

Question: How did the IC50 [1] turn out when `Cn1cnc(Nc2nc(N3CCc4cc(N5CCCC5)ccc4C3)nc3c2[S+]([O-])CC3)c1` (centres unmarked) [Compound 197] was run?
Answer: Its IC50 is 23.8 nM.

Question: What about the IC50 [2] of the same compound?
Answer: Its IC50 is 13.3 nM.

Question: Which inhibition at 0.001 µM [3] does the source give for `CN(C)C1CCN(c2ccc3c(c2)CCN(c2nc4c(c(NC5(CO)CCC5)n2)[S+]([O-])CC4)C3)C1` (centres unmarked) [Compound 148] here?
Answer: The inhibition at 0.001 µM was 3.99%.

Question: And the inhibition at 0.01 µM [3]?
Answer: Its inhibition at 0.01 µM is 37.3%.

Question: And the inhibition at 0.1 µM [3]?
Answer: Its inhibition at 0.1 µM is 92.1%.

Question: What about the IC50 [1] of the same compound?
Answer: Its IC50 is 1.1 nM.

Question: And the IC50 [2]?
Answer: Its IC50 is 0.7 nM.

Question: Which IC50 [1] does the source give for `C[C@H]1c2ccc(N3CCCC3)cc2CCN1c1nc2c(c(Nc3cnn(CCO)c3)n1)[S+]([O-])CC2` (some centres unmarked) [Compound 210] here?
Answer: The IC50 was 1.21 nM.

Question: For `C[C@@H]1CCCN1c1ccc2c(c1)CCN(c1nc3c(c(NC4(CO)CCC4)n1)[S+]([O-])CC3)C2` (some centres unmarked) [Compound 133], which inhibition at 0.001 µM [3] is on record?
Answer: Its inhibition at 0.001 µM is 10.5%.

Question: What about the inhibition at 0.01 µM [3] of the same compound?
Answer: The inhibition at 0.01 µM was 33%.

Question: And the inhibition at 0.1 µM [3]?
Answer: Its inhibition at 0.1 µM is 94.2%.

Question: What about the IC50 [1] of the same compound?
Answer: The IC50 was 1.55 nM.

Question: What about the IC50 [2] of the same compound?
Answer: Its IC50 is 0.515 nM.

Question: With `Cn1cc(CNc2nc(N3CCc4cc(N5CCCC5)ccc4C3)nc3c2[S+]([O-])CC3)cn1` (centres unmarked) [Compound 190] as the compound, how does the inhibition at 0.001 µM [3] read?
Answer: The inhibition at 0.001 µM was 3.93%.

Question: What about the inhibition at 0.01 µM [3] of the same compound?
Answer: The inhibition at 0.01 µM was 47.1%.

Question: What about the inhibition at 0.1 µM [3] of the same compound?
Answer: The inhibition at 0.1 µM was 96.7%.

Question: What about the IC50 [1] of the same compound?
Answer: The IC50 was 0.572 nM.

Question: What about the IC50 [2] of the same compound?
Answer: Its IC50 is 0.168 nM.

Question: Which inhibition at 0.001 µM [3] does the source give for `[O-][S+]1CCc2nc(N3CCc4cc(N5CCC(C(F)(F)F)C5)ccc4C3)nc(NC3(CO)CCC3)c21` (centres unmarked) [Compound 156] here?
Answer: The inhibition at 0.001 µM was 1.42%.

Question: And the inhibition at 0.01 µM [3]?
Answer: The inhibition at 0.01 µM was 25.7%.

Question: What about the inhibition at 0.1 µM [3] of the same compound?
Answer: Its inhibition at 0.1 µM is 91.7%.

Question: What about the IC50 [1] of the same compound?
Answer: Its IC50 is 1.76 nM.

Question: And the IC50 [2]?
Answer: The IC50 was 1.26 nM.

Question: What does the source list for `C[C@H]1c2ccc(N3CCCC3)cc2CCN1c1nc2c(c(Nc3cnn(C4COC4)c3)n1)[S+]([O-])CC2` (some centres unmarked) [Compound 208]?
Answer: IC50 [1]: 0.766 nM; IC50 [2]: 0.22 nM

Question: `COc1nn(C)cc1Nc1nc(N2CCc3cc(N4CCCC4)ccc3C2)nc2c1[S+]([O-])CC2` (centres unmarked) [Compound 193] was tested. Which inhibition at 0.001 µM [3] did it give?
Answer: Its inhibition at 0.001 µM is 4.88%.

Question: What about the inhibition at 0.01 µM [3] of the same compound?
Answer: The inhibition at 0.01 µM was 38.2%.

Question: What about the inhibition at 0.1 µM [3] of the same compound?
Answer: Its inhibition at 0.1 µM is 96%.

Question: What about the IC50 [1] of the same compound?
Answer: Its IC50 is 1.27 nM.

Question: And the IC50 [2]?
Answer: Its IC50 is 0.417 nM.

Question: For `[O-][S+]1CCc2nc(N3CCc4nc(N5CCCC5)sc4C3)nc(NC3(CO)CCC3)c21` (centres unmarked) [Compound 195], which IC50 [1] is on record?
Answer: Its IC50 is 1.12 nM.

Question: What about the IC50 [2] of the same compound?
Answer: Its IC50 is 0.956 nM.

Question: How did the IC50 [1] turn out when `[O-][S+]1CCc2nc(N3CCc4cc(N5C[C@@H]6[C@@H](CO)[C@@H]6C5)ccc4C3)nc(NC3(CO)CCC3)c21` (some centres unmarked) [Compound 174] was run?
Answer: Its IC50 is 0.231 nM.

Question: What about the IC50 [2] of the same compound?
Answer: The IC50 was 0.197 nM.

Question: For “(R)-4-((1-(hydroxymethyl)cyclobutyl)amino)-2-(6-(1-methyl-2,5-dihydro-1H-pyrrol-3-yl)-3,4-dihydroisoquinolin-2(1H)-yl)-6,7-dihydrothieno[3,2-d]pyrimidine 5-oxide [Compound 169]”, which “PDE4B2 Enzyme Inhibition % @10 nM” value ([2]; 10 nM) is on record?
Answer: Its value is 20.43%.

Question: What about the “PDE4B2 Enzyme Inhibition % @100 nM” value ([2]; 100 nM) of the same compound?
Answer: Its value is 78.77%.

Question: Which results are given for `C[C@H]1CN(c2nc3c(c(NC4(CO)CCC4)n2)[S+]([O-])CC3)Cc2ccc(Cl)cc21` (some centres unmarked) [Compound 120]?
Answer: inhibition at 0.001 µM [3]: 4.1%; inhibition at 0.01 µM [3]: 7.4%; inhibition at 0.1 µM [3]: 23.1%; IC50 [2]: 0.98 nM

Question: Which results are given for `[O-][S+]1CCc2nc(N3CCc4cc(N5CCCC5)ncc4C3)nc(NC3(CO)CCC3)c21` (centres unmarked) [Compound 183]?
Answer: inhibition at 0.001 µM [3]: 12.8%; inhibition at 0.01 µM [3]: 78.5%; inhibition at 0.1 µM [3]: 99.9%; IC50 [2]: 0.413 nM

Question: For “(R)-2-(7-fluoro-6-(pyrrolidin-1-yl)-3,4-dihydroisoquinolin-2(1H)-yl)-4-((1-(hydroxymethyl)cyclobutyl)amino)-6,7-dihydrothieno[3,2-d]pyrimidine 5-oxide [Compound 181]”, which IC50 [1] is on record?
Answer: Its IC50 is 0.876 nM.

Question: Which results are given for `Cc1ccc2c(c1)OC[C@H]1CN(c3nc4c(c(NC5(CO)CCC5)n3)[S+]([O-])CC4)CC[C@H]21` (some centres unmarked) [Compound 112]?
Answer: inhibition at 0.001 µM [3]: 12.3%; inhibition at 0.01 µM [3]: 54.1%; inhibition at 0.1 µM [3]: 99.4%

Question: For `C[C@H]1c2ccc(N3CCCC3)cc2CCN1c1nc2c(c(Nc3ccnn3CCO)n1)[S+]([O-])CC2` (some centres unmarked) [Compound 219], which inhibition at 0.001 µM [3] is on record?
Answer: Its inhibition at 0.001 µM is 6.98%.

Question: And the inhibition at 0.01 µM [3]?
Answer: The inhibition at 0.01 µM was 32.6%.

Question: What about the inhibition at 0.1 µM [3] of the same compound?
Answer: The inhibition at 0.1 µM was 66.3%.

Question: What does the source list for `COc1ccc2c(c1)OC[C@H]1CN(c3nc4c(c(NC5(CO)CCC5)n3)[S+]([O-])CC4)CC[C@H]21` (some centres unmarked) [Compound 110]?
Answer: inhibition at 0.001 µM [3]: 19%; inhibition at 0.01 µM [3]: 76.1%; inhibition at 0.1 µM [3]: 100%

Question: What does the source list for `Cn1cc(Nc2nc(N3CCc4cc(N5CC6CC6C5)ccc4C3)nc3c2[S+]([O-])CC3)cn1` (centres unmarked) [Compound 223]?
Answer: inhibition at 0.001 µM [3]: 11.3%; inhibition at 0.01 µM [3]: 73.7%; inhibition at 0.1 µM [3]: 99.2%

Question: How did the inhibition at 0.001 µM [3] turn out when `[O-][S+]1CCc2nc(N3CC[C@@H]4c5ccccc5OC[C@H]4C3)nc(NC3(CO)CCC3)c21` (some centres unmarked) [Compound 83] was run?
Answer: Its inhibition at 0.001 µM is 5.79%.

Question: What about the inhibition at 0.01 µM [3] of the same compound?
Answer: The inhibition at 0.01 µM was 47.8%.

Question: And the inhibition at 0.1 µM [3]?
Answer: Its inhibition at 0.1 µM is 97.3%.

Question: With `[O-][S+]1CCc2nc(N3CCc4cc(N5CC6(COC6)C5)ccc4C3)nc(NC3(CO)CCC3)c21` (centres unmarked) [Compound 164] as the compound, how does the inhibition at 0.001 µM [3] read?
Answer: The inhibition at 0.001 µM was 6.23%.

Question: And the inhibition at 0.01 µM [3]?
Answer: Its inhibition at 0.01 µM is 20%.

Question: What about the inhibition at 0.1 µM [3] of the same compound?
Answer: The inhibition at 0.1 µM was 61.1%.

Question: What does the source list for `[O-][S+]1CCc2nc(N3CC[C@@H]4c5ccc(C(F)(F)F)cc5OC[C@H]4C3)nc(NC3(CO)CCC3)c21` (some centres unmarked) [Compound 111]?
Answer: inhibition at 0.001 µM [3]: 8.07%; inhibition at 0.01 µM [3]: 22.2%; inhibition at 0.1 µM [3]: 81.1%

Question: `[O-][S+]1CCc2nc(N3CCc4cc(C(F)(F)F)ccc4C3)nc(NC3(CO)CCC3)c21` (centres unmarked) [Compound 52] was tested. Which inhibition at 0.01 µM [3] did it give?
Answer: The inhibition at 0.01 µM was 81.8%.

Question: And the inhibition at 0.1 µM [3]?
Answer: The inhibition at 0.1 µM was 99.5%.
